Laboratory results taken from ChEMBL document CHEMBL3217500, “Identification of a novel nanomolar inhibitor of hIcmt via a carboxylate replacement approach” (Medchemcomm, 2012).
Calls of active or inactive are those of the source. The calls are words filed in the database; no cut-off is given here.

Legend:
[1] = biological target: T1, Protein-S-isoprenylcysteine O-methyltransferase (Homo sapiens, UniProt O60725); assay: Activity at human isoprenylcysteine carboxyl methyltransferase using [14C]SAM by vapor diffusion assay relative to AFC
[2] = biological target: T1, Protein-S-isoprenylcysteine O-methyltransferase; assay: Inhibition of human isoprenylcysteine carboxyl methyltransferase using [14C]SAM and N-acetyl-S-farnesyl-L-cysteine as substrate at 10 uM after 30 mins by vapor diffusion assay
[3] = biological target: T1, Protein-S-isoprenylcysteine O-methyltransferase; assay: Inhibition of isoprenylcysteine carboxyl methyltransferase in human Jurkat cells assessed as mislocalization of GFP-K-Ras at 45 uM after 24 hrs by fluorescence microscopic analysis; type: cell-based
[4] = biological target: T1, Protein-S-isoprenylcysteine O-methyltransferase; assay: Competitive inhibition of human isoprenylcysteine carboxyl methyltransferase using [14C]SAM and N-acetyl-S-farnesyl-L-cysteine as substrate by Lineweaver-Burk plot analysis
[5] = biological target: T1, Protein-S-isoprenylcysteine O-methyltransferase; assay: Un-competitive inhibition of human isoprenylcysteine carboxyl methyltransferase using [14C]SAM and N-acetyl-S-farnesyl-L-cysteine as substrate by Lineweaver-Burk plot analysis
[6] = biological target: T1, Protein-S-isoprenylcysteine O-methyltransferase; assay: Inhibition of human isoprenylcysteine carboxyl methyltransferase using [14C]SAM and N-acetyl-S-farnesyl-L-cysteine as substrate after 30 mins by vapor diffusion assay
[7] = biological target: T1, Protein-S-isoprenylcysteine O-methyltransferase; assay: Inhibition of isoprenylcysteine carboxyl methyltransferase in human Jurkat cells assessed as mislocalization of GFP-K-Ras at 10 uM after 24 hrs by fluorescence microscopic analysis; type: cell-based

T1 sequence (O60725 whole entry, the tested form may be a part): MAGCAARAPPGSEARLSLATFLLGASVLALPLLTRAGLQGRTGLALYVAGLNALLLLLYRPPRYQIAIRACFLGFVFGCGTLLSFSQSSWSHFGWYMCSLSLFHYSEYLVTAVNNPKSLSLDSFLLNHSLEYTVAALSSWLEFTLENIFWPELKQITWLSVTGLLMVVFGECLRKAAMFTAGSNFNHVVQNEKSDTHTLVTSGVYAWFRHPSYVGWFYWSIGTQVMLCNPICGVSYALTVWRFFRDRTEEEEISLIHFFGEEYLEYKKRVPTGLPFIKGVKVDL

Structure (SMILES): CC(C)=CCC/C(C)=C/CC/C(C)=C/CC/C(C)=C/CSCCO
- Activity [1]: inactive
- inhibition [2]: 40%

Structure (SMILES): CCOP(=O)(CCCSC/C=C(\C)CC/C=C(\C)CCC=C(C)C)OCC
- Activity [1]: inactive
- inhibition [2]: 20%

Structure (SMILES): COC(=O)CSC/C=C(\C)CC/C=C(\C)CCC=C(C)C
- Activity [1]: inactive
- inhibition [2]: 28%

Structure (SMILES): CC(C)=CCC/C(C)=C/CC/C(C)=C/CSCCN
- Activity [1]: inactive
- inhibition [2]: 6%

Structure (SMILES): CC(C)=CCC/C(C)=C/CC/C(C)=C/CSCC(O)CO (configuration not stated)
- Activity [1]: inactive
- inhibition [2]: 75%

Structure (SMILES): CC(C)=CCC/C(C)=C/CC/C(C)=C/CSCC(=O)NO
- Activity [1]: inactive
- inhibition [2]: 36%

Structure (SMILES): CC(C)=CCC/C(C)=C/CC/C(C)=C/CSCCN=[N+]=[N-]
- Activity [1]: inactive
- inhibition [2]: 11%

Structure (SMILES): COC(=O)C(C)(C)SC/C=C(\C)CC/C=C(\C)CCC=C(C)C
- Activity [1]: inactive
- inhibition [2]: 8%

Structure (SMILES): COC(=O)C(F)(F)SC/C=C(\C)CC/C=C(\C)CCC=C(C)C
- Activity [1]: inactive
- inhibition [2]: 68%

Structure (SMILES): CC(C)=CCC/C(C)=C/CC/C(C)=C/CSCC(C)O (configuration not stated)
- Activity [1]: inactive
- inhibition [2]: 72%

Structure (SMILES): COC(=O)CSC/C=C(\C)CC/C=C(\C)CC/C=C(\C)CCC=C(C)C
- Activity [1]: inactive
- inhibition [2]: 12%

Structure (SMILES): CCC(C)(C)C(=O)O[C@H]1C[C@@H](C)C=C2C=C[C@H](C)[C@H](CC[C@@H]3C[C@@H](O)CC(=O)O3)[C@H]21
- inhibition [3]: Active

Structure (SMILES): CC(=O)SC/C=C(\C)CC/C=C(\C)CCC=C(C)C
- Activity [1]: inactive
- inhibition [2]: 3%

Structure (SMILES): CCCSC/C=C(\C)CC/C=C(\C)CCC=C(C)C
- Activity [1]: inactive
- inhibition [2]: 0%

Structure (SMILES): CC(C)=CCC/C(C)=C/CC/C(C)=C/CSC(F)(F)CO
- Activity [1]: inactive
- inhibition [2]: 44%

Structure (SMILES): COCCSC/C=C(\C)CC/C=C(\C)CCC=C(C)C
- Activity [1]: inactive
- inhibition [2]: 0%

Structure (SMILES): CC(C)=CCC/C(C)=C/CSCC(=O)O
- Activity [1]: inactive
- inhibition [2]: 0%

Structure (SMILES): CCOC(=O)NCCSC/C=C(\C)CC/C=C(\C)CCC=C(C)C
- Activity [1]: inactive
- inhibition [2]: 10%

Structure (SMILES): CC(C)=CCC/C(C)=C/CC/C(C)=C/CSC(C)C
- Activity [1]: inactive
- inhibition [2]: 0%

Structure (SMILES): CC(C)=CCC/C(C)=C/CC/C(C)=C/CSCCO
- Activity [1]: inactive
- Kic [4]: 0.44 µM
- Kiuc [5]: 0.43 µM
- inhibition [2]: 93%
- IC50 [6]: 860 nM
- inhibition [7]: Active

Structure (SMILES): CC(=O)OCCSC/C=C(\C)CC/C=C(\C)CCC=C(C)C
- Activity [1]: inactive
- inhibition [2]: 27%

Structure (SMILES): CC(C)=CCC/C(C)=C/CC/C(C)=C/CSCCS
- Activity [1]: inactive
- inhibition [2]: 0%

Structure (SMILES): CC(C)=CCC/C(C)=C/CC/C(C)=C/CSc1ccccc1C(=O)O
- inhibition [2]: 40%

Structure (SMILES): CC(C)=CCC/C(C)=C/CC/C(C)=C/CSC(C)(C)C(=O)O
- Activity [1]: inactive
- inhibition [2]: 27%

Structure (SMILES): CC(C)=CCC/C(C)=C/CC/C(C)=C/CSCC(=O)O
- Activity [1]: inactive
- inhibition [2]: 50%

Structure (SMILES): CC(C)=CCC/C(C)=C/CC/C(C)=C/CSCCCO
- Activity [1]: inactive
- inhibition [2]: 34%

Structure (SMILES): CC(C)=CCC/C(C)=C/CSCCO
- Activity [1]: inactive
- inhibition [2]: 0%

Structure (SMILES): CC(C)=CCC/C(C)=C/CC/C(C)=C/CSCCC(=O)NO
- Activity [1]: inactive
- inhibition [2]: 22%

Structure (SMILES): COC(=O)CSC/C=C(\C)CCC=C(C)C
- Activity [1]: inactive
- inhibition [2]: 0%

Structure (SMILES): CC(C)=CCC/C(C)=C/CC/C(C)=C/CSC(C)(C)CO
- Activity [1]: inactive
- inhibition [2]: 32%

Structure (SMILES): CC(C)=CCC/C(C)=C/CC/C(C)=C/CCSCCO
- Activity [1]: inactive
- inhibition [2]: 20%

Structure (SMILES): CC(C)=CCC/C(C)=C/CC/C(C)=C/CSCC=O
- Activity [1]: inactive
- inhibition [2]: 13%

Structure (SMILES): COC(=O)CSCC/C=C(\C)CC/C=C(\C)CCC=C(C)C
- Activity [1]: inactive
- inhibition [2]: 12%

Structure (SMILES): CCOP(=O)(CCSC/C=C(\C)CC/C=C(\C)CCC=C(C)C)OCC
- Activity [1]: inactive
- inhibition [2]: 36%

Structure (SMILES): CC(C)=CCC/C(C)=C/CC/C(C)=C/CSCC1OCCO1
- Activity [1]: inactive
- inhibition [2]: 9%

Structure (SMILES): CC(C)=CCC/C(C)=C/CC/C(C)=C/CSCCC(=O)O
- Activity [1]: 50%
- inhibition [2]: 28%

Structure (SMILES): CC(C)=CCC/C(C)=C/CC/C(C)=C/CSCC(N)=O
- Activity [1]: inactive
- inhibition [2]: 47%

Structure (SMILES): CC(C)=CCC/C(C)=C/CC/C(C)=C/CSCCCBr
- Activity [1]: inactive
- inhibition [2]: 9%

Structure (SMILES): CC(=O)CSC/C=C(\C)CC/C=C(\C)CCC=C(C)C
- Activity [1]: inactive
- inhibition [2]: 25%

Structure (SMILES): COC(=O)CCSC/C=C(\C)CC/C=C(\C)CCC=C(C)C
- Activity [1]: inactive
- inhibition [2]: 14%
